molecular target: human Cav2.2 (Homo sapiens, UniProt Q00975); assay: Assessment of calcium channel activity using FLIPR (Ca2+ influx in IMR32 cells); assay type: cell-based; conditions: not given
Experimental: (i) In Vitro Methods—Assessment of Calcium Channel Activity Using FLIPR:
The IMR32 cells were maintained in MEM media containing 10% (v/v) FBS, 1% (v/v) antibiotic/antimitotic, 1% (v/v) sodium pyruvate and 1% (v/v) MEM NEAA. Following dissociation in 0.05% (v/v) trypsin/EDTA, cells were seeded into black 1×96-well plates (Corning Cellbind) at a density of 1−1.2×10^5 cells/well and incubated in the maintenance media above for 48 hours at 37° C. […] To determine the IC50 values, the percent inhibition of the compound at each concentration was determined relative to the activity in the absence of inhibitor, and data was fitted using non-linear regression sigmoidal dose response curve analysis with GraphPad Prism®.

human Cav2.2, sequence (Q00975 whole entry): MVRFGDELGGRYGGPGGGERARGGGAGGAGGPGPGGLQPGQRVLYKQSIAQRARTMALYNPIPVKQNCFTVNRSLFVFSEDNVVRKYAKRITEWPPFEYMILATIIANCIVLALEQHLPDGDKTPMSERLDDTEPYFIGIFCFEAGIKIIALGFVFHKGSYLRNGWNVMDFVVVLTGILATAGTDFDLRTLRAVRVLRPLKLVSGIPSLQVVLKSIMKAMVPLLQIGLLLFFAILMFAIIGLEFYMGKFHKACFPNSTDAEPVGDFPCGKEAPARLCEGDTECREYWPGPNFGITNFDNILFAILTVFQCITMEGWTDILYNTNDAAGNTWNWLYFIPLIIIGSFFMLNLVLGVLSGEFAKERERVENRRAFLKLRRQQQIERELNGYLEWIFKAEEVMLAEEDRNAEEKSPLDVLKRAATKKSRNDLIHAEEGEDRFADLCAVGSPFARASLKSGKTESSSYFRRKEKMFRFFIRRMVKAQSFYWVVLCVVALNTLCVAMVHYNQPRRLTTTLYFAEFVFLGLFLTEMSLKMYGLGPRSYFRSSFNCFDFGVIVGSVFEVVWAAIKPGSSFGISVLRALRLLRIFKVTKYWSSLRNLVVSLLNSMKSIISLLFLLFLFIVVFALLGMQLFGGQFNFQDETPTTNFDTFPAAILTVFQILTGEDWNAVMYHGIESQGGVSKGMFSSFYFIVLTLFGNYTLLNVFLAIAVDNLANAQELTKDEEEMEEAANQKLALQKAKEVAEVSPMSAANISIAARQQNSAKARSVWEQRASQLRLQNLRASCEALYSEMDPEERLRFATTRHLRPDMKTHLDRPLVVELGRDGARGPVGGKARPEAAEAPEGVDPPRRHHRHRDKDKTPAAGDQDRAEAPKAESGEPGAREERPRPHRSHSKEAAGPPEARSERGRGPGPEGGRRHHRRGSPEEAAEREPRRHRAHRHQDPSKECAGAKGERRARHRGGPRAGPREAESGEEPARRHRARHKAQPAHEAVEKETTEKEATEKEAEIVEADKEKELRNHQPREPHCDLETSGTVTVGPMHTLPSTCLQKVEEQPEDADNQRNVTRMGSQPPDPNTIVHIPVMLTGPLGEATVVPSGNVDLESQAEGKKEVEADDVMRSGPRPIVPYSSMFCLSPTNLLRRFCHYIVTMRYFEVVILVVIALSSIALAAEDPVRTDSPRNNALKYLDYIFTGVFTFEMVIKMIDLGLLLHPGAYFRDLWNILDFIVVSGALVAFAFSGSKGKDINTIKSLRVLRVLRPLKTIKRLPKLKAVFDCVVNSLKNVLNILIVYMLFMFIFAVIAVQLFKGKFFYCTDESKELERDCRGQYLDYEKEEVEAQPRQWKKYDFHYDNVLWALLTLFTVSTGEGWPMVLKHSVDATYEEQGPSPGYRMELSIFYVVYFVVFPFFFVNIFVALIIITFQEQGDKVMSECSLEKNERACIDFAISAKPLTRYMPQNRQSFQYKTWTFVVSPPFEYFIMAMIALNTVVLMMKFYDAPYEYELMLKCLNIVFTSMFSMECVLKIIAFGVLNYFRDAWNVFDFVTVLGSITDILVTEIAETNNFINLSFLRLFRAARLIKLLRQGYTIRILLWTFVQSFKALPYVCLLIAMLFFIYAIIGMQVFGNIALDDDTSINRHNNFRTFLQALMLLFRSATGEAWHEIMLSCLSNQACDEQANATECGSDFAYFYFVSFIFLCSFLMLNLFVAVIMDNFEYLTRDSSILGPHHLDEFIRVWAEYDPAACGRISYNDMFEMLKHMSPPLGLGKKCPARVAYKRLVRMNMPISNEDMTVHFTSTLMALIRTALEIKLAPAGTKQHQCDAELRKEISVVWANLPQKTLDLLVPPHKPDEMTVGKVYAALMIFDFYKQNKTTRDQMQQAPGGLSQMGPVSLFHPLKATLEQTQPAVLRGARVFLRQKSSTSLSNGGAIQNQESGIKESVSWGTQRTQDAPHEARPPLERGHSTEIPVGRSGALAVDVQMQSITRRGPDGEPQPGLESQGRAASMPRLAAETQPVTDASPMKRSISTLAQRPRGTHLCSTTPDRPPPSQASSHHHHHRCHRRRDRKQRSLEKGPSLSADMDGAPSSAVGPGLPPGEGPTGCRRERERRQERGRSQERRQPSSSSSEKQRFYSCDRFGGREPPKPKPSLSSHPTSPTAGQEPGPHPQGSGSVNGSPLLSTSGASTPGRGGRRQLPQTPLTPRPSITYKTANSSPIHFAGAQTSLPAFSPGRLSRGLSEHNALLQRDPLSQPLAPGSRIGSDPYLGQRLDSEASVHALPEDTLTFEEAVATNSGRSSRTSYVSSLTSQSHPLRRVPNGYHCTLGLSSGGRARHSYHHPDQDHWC
human Cav2.2, sequence (P54289 25-956 partner limits assumed): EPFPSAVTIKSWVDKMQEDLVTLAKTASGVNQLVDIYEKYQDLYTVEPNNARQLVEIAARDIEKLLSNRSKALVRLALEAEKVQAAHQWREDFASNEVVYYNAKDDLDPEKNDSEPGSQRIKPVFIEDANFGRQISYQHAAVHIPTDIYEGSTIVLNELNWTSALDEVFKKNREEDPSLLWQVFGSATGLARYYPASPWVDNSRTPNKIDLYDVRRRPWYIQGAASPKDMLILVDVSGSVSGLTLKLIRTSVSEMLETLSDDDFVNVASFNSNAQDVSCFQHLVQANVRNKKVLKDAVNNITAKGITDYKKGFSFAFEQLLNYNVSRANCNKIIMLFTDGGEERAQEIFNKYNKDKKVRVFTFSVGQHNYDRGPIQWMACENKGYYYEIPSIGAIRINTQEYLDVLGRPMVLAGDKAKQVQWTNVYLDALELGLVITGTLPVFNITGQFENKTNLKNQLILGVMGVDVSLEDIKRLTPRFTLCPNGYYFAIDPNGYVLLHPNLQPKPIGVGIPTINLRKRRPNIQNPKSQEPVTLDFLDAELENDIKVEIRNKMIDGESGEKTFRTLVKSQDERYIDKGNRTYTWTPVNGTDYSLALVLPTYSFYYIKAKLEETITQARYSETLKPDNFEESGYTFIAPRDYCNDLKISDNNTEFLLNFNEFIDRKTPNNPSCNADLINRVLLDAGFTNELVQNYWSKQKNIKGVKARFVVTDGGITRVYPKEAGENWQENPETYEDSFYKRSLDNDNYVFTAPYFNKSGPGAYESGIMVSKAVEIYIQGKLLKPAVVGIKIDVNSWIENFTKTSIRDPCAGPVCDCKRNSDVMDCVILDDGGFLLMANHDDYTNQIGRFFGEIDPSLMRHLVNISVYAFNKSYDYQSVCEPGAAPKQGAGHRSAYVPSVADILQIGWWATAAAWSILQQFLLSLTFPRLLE
human Cav2.2, sequence (P54289 957-1103 partner limits assumed): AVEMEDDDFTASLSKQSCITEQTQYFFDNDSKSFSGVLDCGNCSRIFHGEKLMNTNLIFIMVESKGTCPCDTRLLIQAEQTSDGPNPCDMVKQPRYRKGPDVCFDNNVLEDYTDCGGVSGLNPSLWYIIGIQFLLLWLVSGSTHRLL
human Cav2.2, sequence (P54284 whole entry partner): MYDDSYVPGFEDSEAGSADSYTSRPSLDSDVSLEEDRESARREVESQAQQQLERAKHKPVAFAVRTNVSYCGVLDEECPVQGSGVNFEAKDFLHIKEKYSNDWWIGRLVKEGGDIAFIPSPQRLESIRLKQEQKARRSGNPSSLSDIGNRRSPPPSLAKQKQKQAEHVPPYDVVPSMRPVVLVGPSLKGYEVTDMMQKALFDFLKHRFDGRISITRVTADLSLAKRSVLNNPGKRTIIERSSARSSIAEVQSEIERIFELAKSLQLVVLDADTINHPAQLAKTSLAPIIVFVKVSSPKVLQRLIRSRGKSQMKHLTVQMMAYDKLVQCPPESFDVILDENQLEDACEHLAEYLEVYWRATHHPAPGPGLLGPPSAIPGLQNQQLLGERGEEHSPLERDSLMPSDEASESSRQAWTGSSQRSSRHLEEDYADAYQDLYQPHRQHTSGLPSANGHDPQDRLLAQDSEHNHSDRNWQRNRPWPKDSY

Point of comparison: `CCC[C@H](NC)C(=O)N[C@H]1CC[C@@H]2CN(S(=O)(=O)c3ccc(OC(F)(F)F)cc3)C[C@@H]21` [Example 532, N^2-methyl-N^1-((3aR,4S,6aS)-2-{[4-(trifluoromethoxy)phenyl]sulfonyl}octahydrocyclopenta[c]pyrrol-4-yl)-L-norvalinamide], IC50 3.16 µM. Against it:
- O=C(N[C@H]1CC[C@H]2CN(Cc3ccccc3)C[C@H]21)C1(c2ccccc2)CCCCC1 (relative stereo) [Example 9, N-[(3aS*,4S*,6aR*)-2-benzyloctahydrocyclopenta[c]pyrrol-4-yl]-1-phenylcyclohexanecarboxamide] — 3-fold lower, 1.04 µM
- O=C(N[C@H]1CC[C@@H]2CN(c3cccc(C(F)(F)F)n3)C[C@@H]21)c1ccc(F)c(Cl)c1 [Example 566, 3-chloro-4-fluoro-N-{(3aR,4S,6aS)-2-[6-(trifluoromethyl)pyridin-2-yl]octahydrocyclopenta[c]pyrrol-4-yl}benzamide] — 3.9-fold lower, 0.81 µM
- N#Cc1ccc(N2C[C@H]3CC[C@H](NC(=O)[C@@H]4C[C@@H](F)CN4)[C@H]3C2)cc1 [Example 633, (4R)-N-[(3aR,4S,6aS)-2-(4-cyanophenyl)octahydrocyclopenta[c]pyrrol-4-yl]-4-fluoro-L-prolinamide] — 8.3-fold higher, 26.2 µM
- O=C(N[C@H]1CC[C@@H]2CN(c3cccc(C(F)(F)F)n3)C[C@@H]21)c1cc2cc(F)ccc2[nH]1 [Example 697, 5-fluoro-N-{(3aR,4S,6aS)-2-[6-(trifluoromethyl)pyridin-2-yl]octahydrocyclopenta[c]pyrrol-4-yl}-1H-indole-2-carboxamide] — within 1.5-fold, 2.24 µM
- O=C(N[C@H]1CC[C@@H]2CN(c3cc(C(F)(F)F)ccn3)C[C@@H]21)[C@@H]1C[C@@H](F)CN1 [Example 637, (4R)-4-fluoro-N-{(3aR,4S,6aS)-2-[4-(trifluoromethyl)pyridin-2-yl]octahydrocyclopenta[c]pyrrol-4-yl}-L-prolinamide] — 6.5-fold higher, 20.5 µM
- CC(C)C[C@H](N[C@H]1CC[C@@H]2CN(c3cccc(C(F)(F)F)n3)C[C@@H]21)C(N)=O [Example 706, N^2-{(3aR,4S,6aS)-2-[6-(trifluoromethyl)pyridin-2-yl]octahydrocyclopenta[c]pyrrol-4-yl}-L-leucinamide] — 2.8-fold lower, 1.12 µM
- CN[C@@H](CC(C)C)C(=O)N[C@H]1CC[C@@H]2CN(c3ccc(OC(F)(F)F)c(F)c3)C[C@@H]21 [Example 657, N-{(3aR,4S,6aS)-2-[3-fluoro-4-(trifluoromethoxy)phenyl]octahydrocyclopenta[c]pyrrol-4-yl}-N^2-methyl-L-leucinamide] — 1.8-fold lower, 1.8 µM
- N[C@H]1CC[C@@H]2CN(c3ccc(C(F)(F)F)cc3)C[C@@H]21 [Example 607, (3aR,4S,6aS)-2-[4-(trifluoromethyl)phenyl]octahydrocyclopenta[c]pyrrol-4-amine] — 2-fold higher, 6.4 µM
- O=C(N[C@H]1CC[C@@H]2CN(c3cccc(C(F)(F)F)n3)C[C@@H]21)c1ccccc1O [Example 562, 2-hydroxy-N-{(3aR,4S,6aS)-2-[6-(trifluoromethyl)pyridin-2-yl]octahydrocyclopenta[c]pyrrol-4-yl}benzamide] — 1.9-fold lower, 1.69 µM
- CC(C)C[C@@H](C(=O)N[C@@H]1CC[C@H]2CN(Cc3ccccc3)C[C@H]21)N1CCOCC1 [Example 249, (2S)-N-[(3aS,4R,6aR)-2-benzyloctahydrocyclopenta[c]pyrrol-4-yl]-4-methyl-2-morpholin-4-ylpentanamide] — higher, > 30 µM
- CN[C@@H](CC(C)C)C(=O)N[C@H]1CC[C@@H]2CN(c3ccc(F)c(C(F)F)c3)C[C@@H]21 [Example 769, N-{(3aR,4S,6aS)-2-[3-(difluoromethyl)-4-fluorophenyl]octahydrocyclopenta[c]pyrrol-4-yl}-N^2-methyl-L-leucinamide] — 2.8-fold lower, 1.13 µM
- CCC[C@H](NC(C)C)C(=O)N[C@@H]1CC[C@H]2CN(Cc3ccccc3)C[C@H]21 [Example 495, N^1-[(3aS,4R,6aR)-2-benzyloctahydrocyclopenta[c]pyrrol-4-yl]-N^2-isopropyl-L-norvalinamide] — higher, > 30 µM
- FC(F)(F)c1cccc(N2C[C@H]3CC[C@H](NCc4cc5cc(Cl)ccc5[nH]4)[C@H]3C2)n1 [Example 665, (3aR,4S,6aS)-N-[(5-chloro-1H-indol-2-yl)methyl]-2-[6-(trifluoromethyl)pyridin-2-yl]octahydrocyclopenta[c]pyrrol-4-amine] — within 1.5-fold, 2.99 µM
- CN[C@@H](CC(C)C)C(=O)N[C@H]1CC[C@@H]2CN(c3cccc(C(F)(F)F)c3F)C[C@@H]21 [Example 635, N-{(3aR,4S,6aS)-2-[2-fluoro-3-(trifluoromethyl)phenyl]octahydrocyclopenta[c]pyrrol-4-yl}-N^2-methyl-L-leucinamide] — 3.4-fold lower, 0.92 µM
- O=C(N[C@H]1CC[C@@H]2CN(c3cccc(C(F)(F)F)n3)C[C@@H]21)c1ccc(F)c(F)c1 [Example 565, 3,4-difluoro-N-{(3aR,4S,6aS)-2-[6-(trifluoromethyl)pyridin-2-yl]octahydrocyclopenta[c]pyrrol-4-yl}benzamide] — 3.9-fold lower, 0.81 µM
- Cc1cnc(C(=O)N[C@H]2CC[C@@H]3CN(c4cccc(C(F)(F)F)n4)C[C@@H]32)cn1 [Example 579, 5-methyl-N-{(3aR,4S,6aS)-2-[6-(trifluoromethyl)pyridin-2-yl]octahydrocyclopenta[c]pyrrol-4-yl}pyrazine-2-carboxamide] — within 1.5-fold, 2.63 µM
- FC(F)(F)c1cccc(N2C[C@H]3CC[C@H](NCc4nc(-c5ccccc5)c[nH]4)[C@H]3C2)n1 [Example 746, (3aR,4S,6aS)-N-[(4-phenyl-1H-imidazol-2-yl)methyl]-2-[6-(trifluoromethyl)pyridin-2-yl]octahydrocyclopenta[c]pyrrol-4-amine] — 1.8-fold lower, 1.71 µM
- O=S(=O)(N[C@@H]1CC[C@H]2CN(CCC(c3ccc(F)cc3)c3ccc(F)cc3)C[C@H]21)c1cccc(C(F)(F)F)c1 [Example 193, N-{(3aS,4R,6aR)-2-[3,3-bis(4-fluorophenyl)propyl]octahydrocyclopenta[c]pyrrol-4-yl}-3-(trifluoromethyl)benzenesulfonamide] — 5.5-fold lower, 0.57 µM

same assay, conditions: read-out: IC50 (μM) or percent inhibition (* indicates 3 minute incubation, otherwise 60 minute); IC50; 60 minute pre-incubation with compound; IMR32 cells, 80 mM KCl depolarization

Point of comparison: `CC(C)C[C@H](NS(=O)(=O)C1CC1)C(=O)N[C@@H]1CC[C@H]2CN(Cc3cccc(C(F)(F)F)c3)C[C@H]21` [Example 172, N^2-(cyclopropylsulfonyl)-N^1-{(3aS,4R,6aR)-2-[3-(trifluoromethyl)benzyl]octahydrocyclopenta[c]pyrrol-4-yl}-L-leucinamide], IC50 2.03 µM. Against it:
- CC(C)C[C@@H](C(=O)N[C@@H]1CC[C@H]2CNC[C@H]21)N(C)C(=O)OC(C)(C)C [Example 349, tert-butyl methyl((S)-4-methyl-1-((3aS,4R,6aR)-octahydrocyclopenta[c]pyrrol-4-ylamino)-1-oxopentan-2-yl)carbamate] — 8.7-fold higher, 17.6 µM
- CC(C)(C)C(C(=O)N[C@H]1CC[C@@H]2CN(Cc3ccccc3)C[C@@H]21)c1ccccc1 (stereo partly drawn) [Example 52, N-[(3aR,4S,6aS)-2-benzyloctahydrocyclopenta[c]pyrrol-4-yl]-3,3-dimethyl-2-phenylbutanamide] — 1.7-fold higher, 3.36 µM
- CC(C)C[C@@H](NS(C)(=O)=O)C(=O)N[C@@H]1CC[C@H]2CN(Cc3cccc(C(F)(F)F)c3)C[C@H]21 [Example 171, N^2-(methylsulfonyl)-N^1-{(3aS,4R,6aR)-2-[3-(trifluoromethyl)benzyl]octahydrocyclopenta[c]pyrrol-4-yl}-D-leucinamide] — 3-fold higher, 6.16 µM
- CC(C)C(C(=O)N[C@H]1CC[C@@H]2CN(CCCc3cc(F)cc(Cl)c3)C[C@@H]21)c1ccccc1 (stereo partly drawn) [Example 114, N-{(3aR,4S,6aS)-2-[3-(3-chloro-5-fluorophenyl)propyl]octahydrocyclopenta[c]pyrrol-4-yl}-3-methyl-2-phenylbutanamide] — within 1.5-fold, 2.81 µM
- O=C(N[C@H]1CC[C@H]2CN(C(c3ccccc3)c3ccccc3)C[C@H]21)C(C1CCCCC1)C1CCCCC1 [Example 120, N-[(3aS,4S,6aR)-2-benzhydryloctahydrocyclopenta[c]pyrrol-4-yl]-2,2-dicyclohexylacetamide] — 1.7-fold higher, 3.44 µM
- (3aR,4S,6aS)-N-(1H-pyrrolo[2,3-b]pyridin-2-ylmethyl)-2-[6-(trifluoromethyl)pyridin-2-yl]octahydrocyclopenta[c]pyrrol-4-amine [Example 693] — within 1.5-fold, 1.42 µM
- CC(C)C(C(=O)N(C)[C@@H]1CC[C@H]2CN(Cc3ccccc3)C[C@H]21)c1ccccc1 (relative stereo) [Example 215, N-[(3aS*,4R*,6aR*)-2-benzyloctahydrocyclopenta[c]pyrrol-4-yl]-N,3-dimethyl-2-phenylbutanamide] — within 1.5-fold, 1.99 µM
- CN(C(=O)OC(C)(C)C)[C@@H](CC(C)(C)C)C(=O)N(CC1CC1)[C@H]1CC[C@@H]2CN(S(=O)(=O)c3ccc(C(F)(F)F)cc3)C[C@@H]21 [Example 298] — 4.4-fold higher, 8.99 µM
- CC(C)[C@@H](CC(=O)N[C@H]1CC[C@@H]2CN(S(=O)(=O)c3cccc(C(F)(F)F)c3)C[C@@H]21)N(C)C [Example 498, (3R)-3-(dimethylamino)-4-methyl-N-((3aR,4S,6aS)-2-{[3-(trifluoromethyl)phenyl]sulfonyl}octahydrocyclopenta[c]pyrrol-4-yl)pentanamide] — within 1.5-fold, 1.59 µM
- CC(C)C[C@H](NC(=O)C(C)(C)C)C(=O)N[C@@H]1CC[C@H]2CN(Cc3cccc(C(F)(F)F)c3)C[C@H]21 [Example 177, N^2-(2,2-dimethylpropanoyl)-N^1-{(3aS,4R,6aR)-2-[3-(trifluoromethyl)benzyl]octahydrocyclopenta[c]pyrrol-4-yl}-L-leucinamide] — within 1.5-fold, 2.64 µM
- CC(C)C[C@@H](NC(=O)OC(C)(C)C)C(=O)N[C@H]1CC[C@H]2CN(Cc3cccc(C(F)(F)F)c3)C[C@H]21 (stereo in doubt) [Example 138, N^2-(tert-butyloxycarbonyl)-N^1-{(3aS*,4S*,6aR*)-2-[3-(trifluoromethyl)benzyl]octahydrocyclopenta[c]pyrrol-4-yl}-D-leucinamide] — 2.5-fold lower, 0.82 µM

Reference: patent publication US8691865B2 (AbbVie Inc., priority 2008, dated 2014)
